Consider 20 compounds from US20250179059A1 (The Regents of the University of California, priority 2021, published 2025).

Assay [1] deals with T1, human BRD4 bromodomain II (Homo sapiens, UniProt O60885).
T1 construct: human BRD4 bromodomain II [based on Genbank NM_058243, residues 349-460]; host or cells: E. coli
Kind of assay: Bromodomain binding assay (AlphaScreen), BRD4 BDII. The method, boiled down: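 Compounds (10-point, 3-fold series) were preincubated 30 min at room temperature with E. coli-expressed N-terminal His6-tagged BRD4 BDII (residues 349-460) or BDI (residues 44-170) in 50 mM HEPES pH 7.5, 100 mM NaCl, 0.05% CHAPS, 0.1% BSA, 1% DMSO. Displacement of biotinylated tetra-acetylated H4 1-21 peptide was read by AlphaScreen; IC50 from curve fitting.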

Assay [2] relates to human SKM-1 acute myeloid leukemia cells. Kind of assay: SKM-1 antiproliferation cell-based assay (ATPlite). The note with it: Homo sapiens. The method, then:
The cell-based assay indirectly measures cell density (and therefore proliferation and/or survival) by detecting total ATP concentration in a homogeneous format. Briefly, human SKM-1 acute myeloid leukemia cells (Leibniz Institute DSMZ #ACC 547) proliferating in log phase are collected by centrifugation, re-suspended in culture media (RPMI 1640/15% FBS/100 U/mL penicillin/100 μg/mL streptomycin) and diluted to 34722 cells/mL in media after counting. Then 180 μL cells are plated per well into a 96-well tissue-culture treated, clear bottom plate (Coming #3603). A 96-well compound plate (Corning #3357) is then generated by serial dilution of compounds into DMSO over nine concentrations and adding separate negative (DMSO) and positive control (reference compound) wells. Each compound concentration is tested in triplicate. First, 1 μL from each well of the compound plate is added to 99 μL culture media in an intermediate plate and mixed by pipetting. Then 20 μL of the diluted compounds in media are added to the assay plate containing the cells. The assay plate is maintained for 4 days in a standard cell culture incubator. At the end of the incubation period, 100 μL ATPlite Istep (PerkinElmer) is added to the assay plate wells, and the resulting luminescence is detected using an Infinite M1000 or a Spark multimode plate reader (Tecan). Data analysis is performed in Prism (GraphPad Software). For curve fitting, a non-linear regression, variable slope equation is used to calculate cellular IC50s.
On the technique in general: Cellular ATP, detected with luciferase, serves as a proxy for viable cell number.

Where [3] appears, read: AlphaScreen assay, Table C2, read-out: BRD4 BDII IC50.
[4] abbreviates: SKM-1, 96 h, SKM-1 antiproliferation assay, 4 days, Table C2.
Setting [5] is: BRD4 BDII AlphaScreen assay, read-out: BRD4 BD2 IC50.
Setting [6] is: SKM-1, SKM-1 antiproliferation assay.

One may read the pIC50 as the IC50 on a negative log10 scale, so that one unit is a factor of ten. For orientation: GI50 means the concentration at which growth is held to half of that of the control. Read a low GI50 as more potent growth inhibition.

The structures appear in SMILES notation. pIC50: −log10 of the molar value. Like-named read-outs stand apart in the source and are kept apart here.

As for `Cn1ccn(-c2ccc(-c3cc(F)cc(-c4cc(-c5ccn[nH]5)cc(N5CCNCC5)c4)c3O)cc2Cl)c1=O` [Example 568], the pIC50 in assay [1] (setting [3]) is 9.00 to 11.00. Moreover, in assay [2] (setting [4]), the GI50 was 0.3 to 30 nM. As for `CC(=O)Nc1ccc(-c2cc(F)cc(-c3ccc(C#N)c(N4CCNCC4)c3)c2O)cc1F` [Example 235, N-(4″-cyano-3,5′-difluoro-2′-hydroxy-3″-(piperazin-1-yl)-[1,1′:3′,1″-terphenyl]-4-yl)acetamide], the pIC50 in assay [1] (setting [3]) was 8.00 to 9.00. For the same compound, the GI50 in assay [2] (setting [4]) was 30 to 300 nM. Regarding `Cn1cc(-c2cc(F)cc(-c3ccc(-n4ccn(C)c4=O)c(Cl)c3)c2O)cc(N2CCC(C)(N)C2)c1=O` (stereo not shown) [Example 723, 3-(3-amino-3-methylpyrrolidin-1-yl)-5-(3′-chloro-5-fluoro-2-hydroxy-4′-(3-methyl-2-oxo-2,3-dihydro-1H-imidazol-1-yl)-[1,1′-biphenyl]-3-yl)-1-methylpyridin-2(1H)-one], in assay [1] (setting [3]), the pIC50 was 8.00 to 9.00. This compound also displayed a GI50 in assay [2] (setting [4]) of 0.3 to 30 nM. Turning to `CN[C@H]1CCN(c2cc(-c3cc(F)cc(-c4ccc(N5CCN(C)C5=O)c(Cl)c4)c3O)ccn2)C1` [Example 438, (S)-1-(3-chloro-5′-fluoro-2′-hydroxy-3′-(2-(3-(methylamino)pyrrolidin-1-yl)pyridin-4-yl)-[1,1′-biphenyl]-4-yl)-3-methylimidazolidin-2-one], the pIC50 in assay [1] (setting [3]) was 8.00 to 9.00. Also, the GI50 in assay [2] (setting [4]) was in the range of 30 to 300 nM. Turning to `CN1CCN(c2ccc(-c3cccc(-c4cncc(N5CC6(CNC6)C5)c4)c3O)cc2Cl)C1=O` [Example 335, 1-(3′-(5-(2,6-diazaspiro[3.3]heptan-2-yl)pyridin-3-yl)-3-chloro-2′-hydroxy-[1,1′-biphenyl]-4-yl)-3-methylimidazolidin-2-one], in assay [1] (setting [3]), the negative logarithm of the IC50 (pIC50) was 8.00 to 9.00. In assay [2] (setting [4]), this compound had a GI50 of 300 to 3000 nM. On to `[2H]C([2H])([2H])n1ccn(-c2ccc(-c3cc(F)cc(-c4ccnc(N5CC[C@H](N)C5)c4)c3O)cc2Cl)c1=O` [Example 451, (S)-1-(3′-(2-(3-aminopyrrolidin-1-yl)pyridin-4-yl)-3-chloro-5′-fluoro-2′-hydroxy-[1,1′-biphenyl]-4-yl)-3-deuteromethyl-1H-imidazol-2(3H)-one], for which the pIC50 in assay [1] (setting [3]) was 9.00 to 11.00. In assay [2] (setting [4]), this compound had a GI50 of 0.3 to 30 nM. In the case of `Cn1ccn(-c2ccc(-c3cc(F)cc(-c4ccnc(C5=CCCNC5)c4)c3O)cc2Cl)c1=O` [Example 657, 1-(3-chloro-5′-fluoro-2′-hydroxy-3′-(1′,2′,5′,6′-tetrahydro-[2,3′-bipyridin]-4-yl)-[1,1′-biphenyl]-4-yl)-3-methyl-1H-imidazol-2(3H)-one], in assay [1] (setting [3]), the pIC50 is 9.00 to 11.00. The same compound registered a GI50 in assay [2] (setting [4]) of 0.3 to 30 nM.

As to `Cn1ccn(-c2ccc(-c3cc(F)cc(-c4cnnc(N5CCN(C(C)(C)C)CC5)c4)c3O)cc2Cl)c1=O` [Example 798, 1-(3′-(6-(4-(tert-butyl)piperazin-1-yl)pyridazin-4-yl)-3-chloro-5′-fluoro-2′-hydroxy-[1,1′-biphenyl]-4-yl)-3-methyl-1H-imidazol-2(3H)-one], the negative-log IC50 (pIC50) in assay [1] (setting [3]) was 9.00 to 11.00. For the same compound, in assay [2] (setting [4]), the GI50 was in the range of 0.3 to 30 nM. Consider `COC[C@@H]1CN(c2cc(-c3cc(F)cc(-c4ccc(-n5ccn(C)c5=O)c(Cl)c4)c3O)ccn2)CCN1` [Example 666, (S)-1-(3-chloro-5′-fluoro-2′-hydroxy-3′-(2-(3-(methoxymethyl)piperazin-1-yl)pyridin-4-yl)-[1,1′-biphenyl]-4-yl)-3-methyl-1H-imidazol-2(3H)-one], for which the pIC50 in assay [1] (setting [3]) is 9.00 to 11.00. For the same compound, in assay [2] (setting [4]), the GI50 was in the range of 0.3 to 30 nM. Taken in the same sequence, the figures for `CN1CCN(c2ccc(-c3cc(F)cc(-c4ccc(OC5CCNCC5)nc4)c3O)cc2Cl)C1=O` [compound 446, 1-(3-chloro-5′-fluoro-2′-hydroxy-3′-(6-(piperidin-4-yloxy)pyridin-3-yl)-[1,1′-biphenyl]-4-yl)-3-methylimidazolidin-2-one] were 7.00 to 8.00 and 300 to 3000 nM. As to `CC(=O)Nc1cccc(-c2cc(F)cc(-c3cccc(N4CCNCC4)c3)c2O)c1Cl` [Example 888], the pIC50 in assay [1] (setting [5]) was below 7.00. In addition, the GI50 in assay [2] (setting [6]) was in the range of 300 to 3000 nM. As to `CC(=O)Nc1ccc(-c2cc(F)cc(-c3ccnc(N4CC5(CNC5)C4)c3)c2O)cc1F` [Example 321, N-(3′-(2-(2,6-diazaspiro[3.3]heptan-2-yl)pyridin-4-yl)-3,5′-difluoro-2′-hydroxy-[1,1′-biphenyl]-4-yl)acetamide], the pIC50 in assay [1] (setting [3]) is 7.00 to 8.00. In addition, the concentration for 50% growth inhibition (GI50) in assay [2] (setting [4]) was 30 to 300 nM. For `Cc1cc(-c2ccc(-n3ccn(C)c3=O)c(Cl)c2)c(O)c(-c2cc(N3CCN[C@H](C)C3)c3cc[nH]c3c2)c1` [Example 567], in that order: 8.00 to 9.00 and 0.3 to 30 nM.

For the compound `Cn1ccn(-c2ccc(-c3ccnc(-c4cccc(N5CCN(C(C)(C)C)CC5)c4)c3N)cc2Cl)c1=O` [Example 976, 1-(4-(3-Amino-2-(3-(4-(tert-butyl)piperazin-1-yl)phenyl)pyridin-4-yl)-2-chlorophenyl)-3-methyl-1H-imidazol-2(3H)-one], the pIC50 in assay [1] (setting [5]) was 8.00 to 9.00. The compound further came in with a GI50 in assay [2] (setting [6]) of 0.3 to 30 nM. Turning to `Cn1cc(-c2cc(F)cc(-c3ccc(-n4ccn(C)c4=O)c(Cl)c3)c2O)cc(N2CCC[C@H](N)C2)c1=O` [Example 425, (S)-3-(3-aminopiperidin-1-yl)-5-(3′-chloro-5-fluoro-2-hydroxy-4′-(3-methyl-2-oxo-2,3-dihydro-1H-imidazol-1-yl)-[1,1′-biphenyl]-3-yl)-1-methylpyridin-2(1H)-one], the pIC50 in assay [1] (setting [3]) was 9.00 to 11.00. Besides, the GI50 in assay [2] (setting [4]) was 30 to 300 nM. Taken in the same sequence, the figures for `COc1cc(-c2cc(F)cc(-c3ccc(-n4ccn(C)c4=O)c(Cl)c3)c2O)cc(N2CCN(C(C)C)CC2)n1` [Example 702, 1-(3-chloro-5′-fluoro-2′-hydroxy-3′-(2-(4-isopropylpiperazin-1-yl)-6-methoxypyridin-4-yl)-[1,1′-biphenyl]-4-yl)-3-methyl-1H-imidazol-2(3H)-one] were 9.00 to 11.00 and 0.3 to 30 nM.

As for `COc1ncc(-c2cc(F)cc(-c3ccc(-n4c(C)cn(C)c4=O)c(Cl)c3)c2O)cc1N1CCN(C(C)(C)C)CC1` [Example 941, 3-(3′-(5-(4-(tert-butyl)piperazin-1-yl)-6-methoxypyridin-3-yl)-3-chloro-5′-fluoro-2′-hydroxy-[1,1′-biphenyl]-4-yl)-1,4-dimethyl-1H-imidazol-2(3H)-one], the pIC50 in assay [1] (setting [5]) was 8.00 to 9.00. The compound also registered a GI50 in assay [2] (setting [6]) of 0.3 to 30 nM. `Cc1cc(-c2ccc(-n3ccsc3=O)c(Cl)c2)c(O)c(-c2cccc(N3CCN(C(C)(C)C)CC3)c2)n1` [Example 1053, 3-(4-(2-(3-(4-(tert-butyl)piperazin-1-yl)phenyl)-3-hydroxy-6-methylpyridin-4-yl)-2-chlorophenyl)thiazol-2(3H)-one] displayed a GI50 in assay [2] (setting [6]) of 0.3 to 30 nM. In assay [2] (setting [6]), `CC1=CCN(c2ccc(-c3cc(F)cc(-c4cccc(N5CCN(C(C)(C)C)CC5)c4)c3O)cc2Cl)C1=O` [Example 1051, 1-(3″-(4-(tert-Butyl)piperazin-1-yl)-3-chloro-5′-fluoro-2′-hydroxy-[1,1′:3′,1″-terphenyl]-4-yl)-3-methyl-1,5-dihydro-2H-pyrrol-2-one] gave a GI50 of 0.3 to 30 nM. In turn, `Cn1ccn(-c2ccc(-c3cc(F)cc(-c4cccc(N5CCN(C(C)(C)C)CC5)c4)c3N)cc2Cl)c1=O` [Example 1058, 1-[2′-Amino-3-(4-tert-butyl-piperazin-1-yl)-3″-chloro-5′-fluoro-[1,1′;3′,1″ ]terphenyl-4″-yl]-3-methyl-1,3-dihydro-imidazol-2-one] yielded a GI50 in assay [2] (setting [6]) of 0.3 to 30 nM.
